Experimental data from patent publication US20250296959A1, “B7-H3 TARGETING PEPTIDES AND CONSTRUCTS THEREOF” (Mariana Oncology Inc., priority 2024, published 2025).
Starred links: 1 amine or outer side, 2 acyl side, 3 side chain; linkers in the order of their positions; H or OH if unused. Positions of bridges follow the written chain, without caps; N, C: chain ends. Non-standard residues stand in square brackets, D forms with d. Residues, ends and D or L forms follow the SMILES beside them. *: point of attachment. X6 = CSCC[C@H](NC(=O)c1ccc(CNC(=O)CN2CCN(CC(=O)O)CCN(CC(=O)O)CCN(CC(=O)O)CC2)cc1)C(=O)N[C@H](C(=O)N[C@@H](CCCCN*)C(=O)O)C(C)C; Ala(piperidin-4-yl) = O=C([C@H](CC1CCN([*:3])CC1)N[*:1])[*:2]; DOTA = O=C(O)CN1CCN(CC(=O)O)CCN(CC(=O)*)CCN(CC(=O)O)CC1; Trp(5-F) = N[C@@H](Cc1c[nH]c2ccc(F)cc12)C(=O)O; X1 = C[C@@H](c1ccccc1)[C@H](N[*:1])C(=O)[*:2]; PEG8 = NCCOCCOCCOCCOCCOCCOCCOCCOCCC(=O)O; γGlu = O=C(O)[C@H](CCC(=O)[*:2])N[*:1]; Ala(4-THP) = N[C@@H](CC1CCOCC1)C(=O)O; Val(3-OH) = CC(C)(O)[C@H](N)C(=O)O; Tle = CC(C)(C)[C@H](N)C(=O)O; hLeu = CC(C)CC[C@H](N)C(=O)O; Nle = CCCC[C@H](N)C(=O)O; Dap = NC[C@H](N)C(=O)O; PEG1 = NCCOCCC(=O)O; Sar = CNCC(=O)O

These molecules were tested against T1, human 4lg B7-H3 (Homo sapiens, UniProt Q5ZPR3) (assay: Affinity determination by surface plasmon resonance (SPR) to 4Ig B7-H3). Conditions: SPR KD—25° C., 4Ig B7-H3; 25° C. flow cell temperature.
T1 sequence (Q5ZPR3 29-534): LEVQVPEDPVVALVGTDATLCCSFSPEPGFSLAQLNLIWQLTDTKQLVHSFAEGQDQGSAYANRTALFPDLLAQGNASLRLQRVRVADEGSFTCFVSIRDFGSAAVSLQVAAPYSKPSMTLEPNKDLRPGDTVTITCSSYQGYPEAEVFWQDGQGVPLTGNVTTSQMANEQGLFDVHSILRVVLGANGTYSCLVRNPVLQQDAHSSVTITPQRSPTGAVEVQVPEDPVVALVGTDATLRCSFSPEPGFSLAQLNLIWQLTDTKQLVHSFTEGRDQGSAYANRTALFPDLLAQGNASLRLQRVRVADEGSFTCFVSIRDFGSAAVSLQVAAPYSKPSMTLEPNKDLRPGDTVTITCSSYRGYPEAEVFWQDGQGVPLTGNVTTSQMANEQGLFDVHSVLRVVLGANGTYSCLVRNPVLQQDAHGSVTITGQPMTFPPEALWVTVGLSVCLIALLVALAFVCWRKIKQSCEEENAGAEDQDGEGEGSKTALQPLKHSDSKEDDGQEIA

Kd [nM] | SMILES
10 to 100 | CCCC[C@H](NC(=O)CCOCCOCCOCCOCCOCCOCCOCCOCCNC(=O)CN1CCN(CC(=O)O)CCN(CC(=O)O)CCN(CC(=O)O)CC1)C(=O)N[C@@H](Cc1ccc(O)cc1)C(=O)N[C@H]1CSSC[C@@H](C(=O)N[C@@H](Cc2c[nH]c3ccccc23)C(=O)N[C@@H](Cc2ccccc2)C(=O)N[C@H](C(N)=O)[C@@H](C)O)NC(=O)[C@H](Cc2ccc(O)cc2)NC(=O)[C@H](C(C)C)NC(=O)[C@H](CC(=O)O)NC(=O)[C@H](Cc2ccc(O)cc2)NC(=O)[C@H](CCCCN)NC(=O)CNC(=O)[C@H](C(C)C)NC1=O [compound 94, DOTA-PEG8-Nle-Y-C-V-G-K-Y-D-V-Y-C-W-F-Thr-CONH2] ({DOTA-PEG8}-[Nle]YCVGKYDVYCWFT-NH2; disulfide 3-11)

Same assay, conditions: SPR KD—37° C., 4Ig B7-H3; 37° C. flow cell temperature

Kd [nM] | SMILES
< 1 | CC(=O)N[C@@H](CCC(C)C)C(=O)N[C@@H](Cc1ccc(O)cc1)C(=O)N[C@H]1CSSC[C@@H](C(=O)N[C@@H](Cc2c[nH]c3ccc(F)cc23)C(=O)N[C@@H](Cc2ccccc2)C(=O)N[C@H](C(=O)N[C@H](CCCCNC(=O)CN2CCN(CC(=O)O)CCN(CC(=O)O)CCN(CC(=O)O)CC2)C(=O)O)C(C)(C)O)NC(=O)[C@H](Cc2ccc(O)cc2)NC(=O)[C@H](C(C)C)NC(=O)[C@H](CC(=O)O)NC(=O)[C@H](CC2CCOCC2)NC(=O)[C@H](CCCCN)NC(=O)CN(C)C(=O)[C@H](C(C)C)NC1=O [compound 347, Ac-hLeu-Y-C-V-Sar-K-ThpA-D-V-Y-C-5FW-F-hydroxyVal-dLys(DOTA)-COOH] (Ac-[hLeu]YCV[Sar]K[Ala(4-THP)]DVYC[Trp(5-F)]F[Val(3-OH)][dK](DOTA)-OH; disulfide 3-11)
< 1 | CC(=O)N[C@@H](CCC(C)C)C(=O)N[C@@H](Cc1ccc(O)cc1)C(=O)N[C@H]1CSSC[C@@H](C(=O)N[C@@H](Cc2c[nH]c3ccc(F)cc23)C(=O)N[C@@H](Cc2ccccc2)C(=O)N[C@H](C(=O)N[C@H](CCCCNC(=O)CN2CCN(CC(=O)O)CCN(CC(=O)O)CCN(CC(=O)O)CC2)C(=O)O)C(C)(C)O)NC(=O)[C@H](Cc2ccc(O)cc2)NC(=O)[C@H](C(C)C)NC(=O)[C@H](CC(=O)O)NC(=O)[C@H](CC2CCOCC2)NC(=O)[C@H](CN)NC(=O)CNC(=O)[C@H](C(C)(C)C)NC1=O [compound 372, Ac-hLeu-Y-C-Tbg-G-Dap-ThpA-D-V-Y-C-5FW-F-hydroxyVal-dLys(DOTA)-COOH] (Ac-[hLeu]YC[Tle]G[Dap][Ala(4-THP)]DVYC[Trp(5-F)]F[Val(3-OH)][dK](DOTA)-OH; disulfide 3-11)
1 to 10 | CC(C)CC[C@H](NC(=O)CCOCCNC(=O)CC[C@H](NC(=O)CN1CCN(CC(=O)O)CCN(CC(=O)O)CCN(CC(=O)O)CC1)C(=O)O)C(=O)N[C@@H](Cc1ccc(O)cc1)C(=O)N[C@H]1CSSC[C@@H](C(=O)N[C@@H](Cc2c[nH]c3ccc(F)cc23)C(=O)N[C@@H](Cc2ccccc2)C(=O)N[C@H](C(N)=O)C(C)(C)O)NC(=O)[C@H](Cc2ccc(O)cc2)NC(=O)[C@H](C(C)C)NC(=O)[C@H](CC(=O)O)NC(=O)[C@H](CC2CCOCC2)NC(=O)[C@H](CCCCN)NC(=O)CNC(=O)[C@H](C(C)(C)C)NC1=O [compound 395, DOTA-gE-PEG1-hLeu-Y-C-Tbg-G-K-ThpA-D-V-Y-C-5FW-F-hydroxyVal-CONH2] ({DOTA-γGlu-PEG1}-[hLeu]YC[Tle]GK[Ala(4-THP)]DVYC[Trp(5-F)]F[Val(3-OH)]-NH2; disulfide 3-11)

The remaining lines, values behind:

SMILES | Kd [nM]
CSCC[C@H](NC(=O)c1ccc(CNC(=O)CN2CCN(CC(=O)O)CCN(CC(=O)O)CCN(CC(=O)O)CC2)cc1)C(=O)N[C@H](C(=O)N[C@@H](CCCCNC(=O)CC[C@@H]1NC(=O)[C@H](CC2CCNCC2)NC(=O)CNC(=O)[C@H](C(C)(C)C)NC(=O)[C@@H](NC(=O)[C@H](Cc2ccc(O)cc2)NC(=O)[C@H](CCC(C)C)NC(C)=O)CSSC[C@@H](C(=O)N[C@@H](Cc2c[nH]c3ccc(F)cc23)C(=O)N[C@H](C(=O)N[C@H](C(=O)N[C@H](CO)C(=O)O)C(C)(C)O)[C@@H](C)c2ccccc2)NC(=O)[C@H](Cc2ccc(O)cc2)NC(=O)[C@H](C(C)C)NC(=O)[C@H](CC(=O)O)NC1=O)C(=O)O)C(C)C [Cpd #518, Ac-hLeu-Y-C-Tbg-G-PipAla-Glu[&Lys(OH)-Val-Met-AmBz-DOTA]-D-V-Y-C-5FW-[(2S, 3S)beta-Me-Phe]-hydroxyVal-dSer-COOH] (Ac-[hLeu]YC[Tle]G[Ala(piperidin-4-yl)]E(X6)DVYC[Trp(5-F)][X1][Val(3-OH)][dS]-OH; disulfide 3-11) | < 1
CSCC[C@H](NC(=O)c1ccc(CNC(=O)CN2CCN(CC(=O)O)CCN(CC(=O)O)CCN(CC(=O)O)CC2)cc1)C(=O)N[C@H](C(=O)N[C@@H](CCCCNC(=O)[C@@H](NC(=O)[C@H](Cc1ccccc1)NC(=O)[C@H](Cc1c[nH]c2ccc(F)cc12)NC(=O)[C@@H]1CSSC[C@H](NC(=O)[C@H](Cc2ccc(O)cc2)NC(=O)[C@H](CCC(C)C)NC(C)=O)C(=O)N[C@@H](C(C)(C)C)C(=O)NCC(=O)N[C@@H](CC2CCNCC2)C(=O)N[C@@H](CC2CCOCC2)C(=O)N[C@@H](CC(=O)O)C(=O)N[C@@H](C(C)C)C(=O)N[C@@H](Cc2ccc(O)cc2)C(=O)N1)C(C)(C)O)C(=O)O)C(C)C [Cpd #482, Ac-hLeu-Y-C-Tbg-G-PipAla-ThpA-D-V-Y-C-5FW-F-hydroxyVal-εLys(Val-Met-AmBz-DOTA)-COOH] (Ac-[hLeu]YC[Tle]G[Ala(piperidin-4-yl)][Ala(4-THP)]DVYC[Trp(5-F)]F[Val(3-OH)]-X6; disulfide 3-11) | 1 to 10
